Assay results from patent publication EP2797914B1, “NIFURATEL SULFOXIDE FOR USE IN THE TREATMENT OF BACTERIAL INFECTIONS” (Polichem SA, priority 2011, dated 2013).
Converted amounts (≈) assume the structure as drawn. Where two headings read alike, the source gives them in different places.

Tests used:
[1] = system: Lactobacillus iners ATCC 55195; assay: MIC by broth microdilution method (CLSI M07-A8 / M11-A7); type: cell-based; conditions: ATCC55195; broth microdilution; Lactobacillus iners ATCC 55195; read-out: MIC
Description: The in vitro activity of nifuratel sulfoxide racemate, R-nifuratel sulfoxide and S-nifuratel sulfoxide was tested on a panel of bacteria, which included both Gram positive and Gram negative bacteria. The minimum inhibitory concentrations (MICs) of the compounds were determined by the broth microdilution method or by the agar dilution method, according to the National Committee for Clinical Laboratory Standards (CLSI) reference methods […]-A8 and M11-A7.

[2] = system: Escherichia coli ATCC 11775; assay: MIC by broth microdilution method (CLSI M07-A8 / M11-A7); efficiency coefficient derived; type: cell-based; conditions: ATCC11775; broth microdilution; Escherichia coli ATCC 11775; read-out: MIC
Description: (§1) The in vitro activity of nifuratel sulfoxide racemate, R-nifuratel sulfoxide and S-nifuratel sulfoxide was tested on a panel of bacteria, which included both Gram positive and Gram negative bacteria.
(§2) The minimum inhibitory concentrations (MICs) of the compounds were determined by the broth microdilution method or by the agar dilution method, according to the National Committee for Clinical Laboratory Standards (CLSI) reference methods M07-A8 and M11-A7.
(§3) The efficiency coefficient (EC) of nifuratel sulfoxide vs. nifuratel was calculated for each tested strain as follows: EC = relative oral bioavailability*[…] [formula]
(§4) Where: • nifS = nifuratel sulfoxide • nif = nifuratel • EC = 1 is indicative of equivalent efficiency between nifuratel sulfoxide and nifuratel. • EC < 1 is indicative of a lower efficiency of nifuratel sulfoxide vs. nifuratel • EC > 1 is indicative of a higher efficiency of nifS vs. nif

[3] = system: Klebsiella pneumonia ATCC 10031; assay: as above; type: cell-based; conditions: Klebsiella pneumoniae, ATCC10031; broth microdilution; Klebsiella pneumonia ATCC 10031; read-out: MIC
Description: as §1, §2, §3, §4

[4] = system: Micrococcus pyogenes ATCC 11631; assay: as above; type: cell-based; conditions: Staphylococcus aureus, ATCC11631; broth microdilution; Micrococcus pyogenes ATCC 11631; read-out: MIC
Description: as §1, §2, §3, §4

[5] = system: Neisseria gonorrhoeae ATCC 19424; assay: as above; type: cell-based; conditions: ATCC19424; broth microdilution; Neisseria gonorrhoeae ATCC 19424; read-out: MIC
Description: as §1, §2, §3, §4

[6] = system: Proteus mirabilis ATCC 14153; assay: as above; type: cell-based; conditions: ATCC14153; broth microdilution; Proteus mirabilis ATCC 14153; read-out: MIC
Description: as §1, §2, §3, §4

[7] = system: Salmonella paratyphi B ATCC 10719; assay: as above; type: cell-based; conditions: Salmonella enterica, read-out: MIC
Description: as §1, §2, §3, §4

[8] = system: Salmonella typhimurium ATCC 14028; assay: as above; type: cell-based; conditions: Salmonella enterica; broth microdilution; Salmonella typhimurium ATCC 14028; read-out: MIC
Description: as §1, §2, §3, §4

[9] = system: Shigella sonnei ATCC 11060; assay: as above; type: cell-based; conditions: ATCC11060, read-out: MIC
Description: as §1, §2, §3, §4

[10] = system: Staphylococcus aureus (MRSA); assay: as above; type: cell-based; conditions: broth microdilution; Staphylococcus aureus (MRSA); read-out: MIC
Description: as §1, §2, §3, §4

Atopobium vaginae = assay: MIC by agar dilution method (CLSI M07-A8 / M11-A7); efficiency coefficient derived; type: cell-based; conditions: for MIC: Fannyhessea vaginae, agar dilution, read-out: MIC
Description: as §1, §2, §3, §4

Gardnerella vaginalis = assay: as above; type: cell-based; conditions: for MIC: Gardnerella vaginalis, read-out: MIC
Description: as §1, §2, §3, §4

[11] = Rat pharmacokinetics in plasma, non compartmental analysis; type: in vivo, male rats; conditions: male rats; for Cmax: read-out: Cmax; for Tmax: read-out: Tmax (converted)
Description: The pharmacokinetic profiles in plasma of nifuratel and nifuratel sulfoxide were tested after intravenous administration (2mg/kg) and oral gavage (15mg/kg) in male rats. […]

[12] = Metabolic profiling of nifuratel in human urines by LC/MS/MS after oral administration; type: in vivo; conditions: two subjects treated orally with nifuratel; attributed by mass spectrometry
Description: As a matter of fact, metabolic profiling of nifuratel, following oral administration, was assessed in human urines by liquid chromatography/tandem mass spectrometry (LC/MS/MS).
More in details, urines of two subjects treated orally with nifuratel were collected at the following time-points: pre-dose, 0-4, 4-8, 8-12, 12-24, 24-36 and 36-48 h after treatment.
Nifuratel was not detected in any of the urine samples. […] Based on such a discovery, the applicant has performed both in vitro and in vivo tests in order to establish whether nifuratel sulfoxide is endowed with anti-bacterial activity.

[13] = 2mg/kg intravenous administration
[14] = rat, in vivo, IV (2mg/Kg), plasma, mean
[15] = rat, in vivo, XOS (15mg/kg), oral gavage, plasma, mean

C[S+]([O-])CC1CN(/N=C/c2ccc([N+](=O)[O-])o2)C(=O)O1 (racemic) [Nifuratel sulfoxide, nifuratel sulfoxide]
MIC [1]: 16 mg/L (≈ 53.1 µM) | MIC [2]: 16 mg/L (≈ 53.1 µM) | MIC [3]: 16 mg/L (≈ 53.1 µM) | MIC [4]: 32 mg/L (≈ 106 µM) | MIC [5]: 2 mg/L (≈ 6.64 µM) | MIC [6]: 8 mg/L (≈ 26.6 µM) | MIC [7]: 8 mg/L (≈ 26.6 µM) | MIC [8]: 32 mg/L (≈ 106 µM) | MIC [9]: 16 mg/L (≈ 53.1 µM) | MIC [10]: 16 mg/L (≈ 53.1 µM) | MIC (Atopobium vaginae; CCUG38953, strain CCUG 38953): 2 mg/L (≈ 6.64 µM) | MIC (Atopobium vaginae; CCUG39382, strain CCUG 39382): 1 mg/L (≈ 3.32 µM) | MIC (Atopobium vaginae; CCUG42099, strain CCUG 42099): 2 mg/L (≈ 6.64 µM) | MIC (Atopobium vaginae; CCUG43049, strain CCUG 43049): 4 mg/L (≈ 13.3 µM) | MIC (Atopobium vaginae; CCUG44061, strain CCUG 44061): 1 mg/L (≈ 3.32 µM) | MIC (Atopobium vaginae; CCUG44156, strain CCUG 44156): 1 mg/L (≈ 3.32 µM) | MIC (Atopobium vaginae; CCUG48515, strain CCUG 48515): 2 mg/L (≈ 6.64 µM) | MIC (Atopobium vaginae; CCUG55226, strain CCUG 55226): 4 mg/L (≈ 13.3 µM) | MIC (Atopobium vaginae; CCUG55227, strain CCUG 55227): 4 mg/L (≈ 13.3 µM) | in vitro antimicrobial activity (in words) (Atopobium vaginae; tested Atopobium vaginae strains): good activity | MIC (Gardnerella vaginalis; ATCC14018, agar dilution, strain ATCC 14018): 8 mg/L (≈ 26.6 µM) | MIC (Gardnerella vaginalis; agar dilution, strain C2): 16 mg/L (≈ 53.1 µM) | MIC (Gardnerella vaginalis; agar dilution, strain D2): 32 mg/L (≈ 106 µM) | MIC (Gardnerella vaginalis; agar dilution, strain E2): 32 mg/L (≈ 106 µM) | MIC (Gardnerella vaginalis; agar dilution, strain G2): 32 mg/L (≈ 106 µM) | MIC (Gardnerella vaginalis; agar dilution, strain H2): 8 mg/L (≈ 26.6 µM) | MIC (Gardnerella vaginalis; agar dilution, strain J2): 32 mg/L (≈ 106 µM) | MIC (Gardnerella vaginalis; agar dilution, strain K2): 32 mg/L (≈ 106 µM) | in vitro antimicrobial activity (in words) (Gardnerella vaginalis; tested Gardnerella vaginalis strains): good activity | AUC, folds higher than nifuratel [11, 13]: over 5 folds | Cmax, folds higher than nifuratel [11, 13]: 4 folds | clearance, folds slower with respect to nifuratel [11, 13]: over 5 folds | AUC, folds higher than nifuratel ([11]; 15mg/kg oral administration): 30 folds | Cmax, folds higher than nifuratel ([11]; 15mg/kg oral administration): 37 folds | increased bioavailability versus nifuratel ([11]; 15mg/kg oral administration): 5 fold | T1/7 ([11]; IV (2mg/Kg), plasma, mean): 15.5 min | Tlast ([11]; IV (2mg/Kg), plasma, mean): 120 min | Vss ([11]; IV (2mg/Kg), plasma, mean): 0.865 kg⁻¹ | Mean Fpo ([11]; XOS (15mg/kg), oral gavage): 11% | Tlast ([11]; XOS (15mg/kg), oral gavage, plasma, mean): 240 min | AUC(0-inf) [11, 14]: 0.703 µg·h/mL | AUC(0-t) [11, 14]: 0.7 µg·h/mL | MRT [11, 14]: 17.7 min | clearance [11, 14]: 2.85 L/h/kg | C0 ([11]; rat, in vivo, IV (2mg/Kg), plasma, mean, read-out: C0): 2.81 µg/mL | concentration at 120 min ([11]; rat, in vivo, IV (2mg/Kg), plasma, mean, read-out: Clast): 0.073 µg/mL | Cmax [11, 14]: 2.22 µg/mL | Tmax [11, 14]: 2 min | AUC(0-t) [11, 15]: 0.605 µg·h/mL | MRT [11, 15]: 94 min | half-life [11, 15]: 128 min | concentration at 240 min ([11]; rat, in vivo, XOS (15mg/kg), oral gavage, plasma, mean, read-out: Clast): 0.0806 µg/mL | Cmax [11, 15]: 0.298 µg/mL | Tmax [11, 15]: 23 min | metabolite found in urine [12]: major metabolite
